Assay results taken from patent US11572399B2, “Long-acting GIP peptide analogues” (University of Copenhagen, priority 2017, dated 2023).
Numbered stars: 1 amine (or outer) side, 2 acyl side, 3 side chain; on linkers, the order of the positions; unused ones are H or OH. Side chains are listed from the residue outwards. Peptide text beside a SMILES is read from it. * marks the point of attachment. C16 diacid = O=C(O)CCCCCCCCCCCCCCC(=O)*; γGlu = O=C(O)[C@H](CCC(=O)[*:2])N[*:1]; Palmitoyl = CCCCCCCCCCCCCCCC(=O)*; βAla = NCCC(=O)O

Experiments:
[1] = Elimination half-life (T1/2) estimated in pigs, subcutaneous, RIA; format: in vivo; settings: pig; for half-life: plasma, sc, pigs, subcutaneous 1-10 nmol/kg; for T½: subcutaneous
Description: LYH/LYD strain pigs or mini-pigs were housed in the animal facility at the Faculty of Health and Medical Sciences.
A pig was subcutaneously administered one of the lipidated GIP(3-30)NH2 analogs (compound AT117) (1-10 nmol/kg, total volume 2-6 mL) after which 10-18 blood samples were collected before and up to 57 hours post subcutaneous administration) from a central venous catheter. The catheter was flushed with saline and heparin between samples. Blood was collected into cold EDTA tubes, centrifuged and plasma was kept at −20° C. pending analyses. When experiments are completed, the animals will be killed.
Concentrations of the lipidated GIP(3-30)NH2 or GIP(5-30)NH2 analogues in blood samples from pigs were analysed by RIA. Analogues' immunoreactivity was determined using antiserum Ab95234, Ab95235, Ab95236, a polyclonal in-house antibody raised in rabbits specific for either the mid region of GIP(1-30)NH2 or amidated C-terminus of GIP(3-30)NH2.

[2] = molecular target: T1, human GIP receptor (Homo sapiens, UniProt P48546); experiment: cAMP accumulation assay, agonism (ligand alone); format: cell-based; settings: COS-7 cells, Table 1; for Emax: COS-7, intrinsic cAMP activity
T1 construct: host or cells: COS-7, transient transfection (calcium phosphate), cDNA in pCMV-Script
T1 sequence (P48546 22-466): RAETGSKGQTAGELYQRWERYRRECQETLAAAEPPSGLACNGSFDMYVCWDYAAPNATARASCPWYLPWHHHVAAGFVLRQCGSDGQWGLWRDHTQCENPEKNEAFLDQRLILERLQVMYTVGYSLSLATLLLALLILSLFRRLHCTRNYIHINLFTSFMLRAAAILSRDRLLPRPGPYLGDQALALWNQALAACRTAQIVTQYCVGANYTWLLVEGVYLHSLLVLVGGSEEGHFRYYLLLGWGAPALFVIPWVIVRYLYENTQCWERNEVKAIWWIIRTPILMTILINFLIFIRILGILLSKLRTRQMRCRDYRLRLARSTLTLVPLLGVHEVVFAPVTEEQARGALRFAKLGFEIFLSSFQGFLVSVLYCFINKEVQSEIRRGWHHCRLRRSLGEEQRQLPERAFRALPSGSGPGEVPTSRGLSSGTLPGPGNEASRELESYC

[3] = molecular target: T1, human GIP receptor; experiment: cAMP accumulation assay, antagonism of a GIP-mediated cAMP response (50-80% of max); format: cell-based; settings: for cAMP - antagonisme fold (paired): fold vs GIP(3-30)NH2, Table 3b; for IC50: transiently transfected COS-7 cells, Table 1 and text, read-out: cAMP antagonism nM (IC50, antagonistic potency); for Fold change from GIP(3-30)NH2 (increase in potency): Table 5
Description: The day after, the cells were washed twice with Hepes buffered saline (HBS) buffer and incubated with HBS and 1 mM 3-isobutyl-1-methylxanthine (IBMX) for 30 min at 37° C. […] The HitHunter™ cAMP XS assay (DiscoveRx) was carried out according to the manufacturer's instructions.

[4] = molecular target: T1, human GIP receptor; experiment: 125I-human GIP competition binding assay, in the presence and absence of 2% HSA; settings: for Binding fold (paired): fold decrease in affinity compared to GIP(3-30)NH2; for Fold change in affinity, IC50 (plus HSA)/IC50 (minus HSA): presence vs absence of 2% HSA, proxy for albumin binding;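 as to all read-outs here: nonspecific binding taken as radioligand bound to untransfected cells, IC50 obtained from nonlinear regression fits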
[5] = Solubility of linker analogues; format: physicochemical; settings: read-out: Solubility, obtainable concentration
[6] = 0.1% casein, no HSA, Table 3b, read-out: Binding logIC50 0.1% casein (converted)
[7] = Table 3b, initial data, read-out: Binding IC50
[8] = heterologous competition binding, transiently transfected COS-7 cells expressing the human GIP receptor, read-out: Binding
[9] = binding in presence of 2% HSA, read-out: logIC50 2% HSA (converted)

Row | SMILES | half-life [1] | Emax [2] | cAMP - antagonisme fold (paired) [3] | IC50 [3] | IC50 [4, 6] | IC50 [4, 7] | Binding fold (paired) ([4]; Table 3b) | IC50 [4, 8] | Fold change in affinity, IC50 (plus HSA)/IC50 (minus HSA) [4] | Fold change from GIP(3-30)NH2 (increase in potency) [3] | solubility [5] | T½ [1] | IC50 [4, 9] | also measured
1 | CC[C@H](C)[C@H](NC(=O)[C@H](CO)NC(=O)[C@H](Cc1ccc(O)cc1)NC(=O)[C@H](CC(=O)O)NC(=O)[C@H](CO)NC(=O)[C@@H](NC(=O)[C@H](Cc1ccccc1)NC(=O)[C@@H](NC(=O)CNC(=O)[C@@H](N)CCC(=O)O)[C@@H](C)O)[C@@H](C)CC)C(=O)N[C@@H](C)C(=O)N[C@@H](CCSC)C(=O)N[C@@H](CC(=O)O)C(=O)N[C@@H](CCCNC(=N)N)C(=O)N[C@H](C(=O)N[C@@H](CCCCNC(=O)CCCCCCCCCCCCCCC(=O)O)C(=O)N[C@@H](CCC(N)=O)C(=O)N[C@@H](CCC(N)=O)C(=O)N[C@@H](CC(=O)O)C(=O)N[C@@H](Cc1ccccc1)C(=O)N[C@H](C(=O)N[C@@H](CC(N)=O)C(=O)N[C@@H](Cc1c[nH]c2ccccc12)C(=O)N[C@@H](CC(C)C)C(=O)N[C@@H](CC(C)C)C(=O)N[C@@H](C)C(=O)N[C@@H](CCC(N)=O)C(=O)N[C@@H](CCCNC(=N)N)C(N)=O)C(C)C)[C@@H](C)CC [AT159, [hGIP(3-30)NH2[K16R; H18K; K30R]-C16diacid/18]] (H-EGTFISDYSIAMDRIK(C16 diacid)QQDFVNWLLAQR-NH2; N-terminus assumed) | 6 h | 6% | 0.1 fold | 6 nM | 25 nM | 25 nM | 3 fold | 18 nM | 0.8 fold |  |  |  |  | EC50 ([2]; read-out: cAMP agonism nM (EC50)): 2 nM
2 | CCCCCCCCCCCCCCCC(=O)N[C@@H](CCC(=O)NCCCC[C@H](NC(=O)[C@@H](NC(=O)[C@H](CCCCN)NC(=O)[C@H](CC(=O)O)NC(=O)[C@H](CCSC)NC(=O)[C@H](C)NC(=O)[C@@H](NC(=O)[C@H](CO)NC(=O)[C@H](Cc1ccc(O)cc1)NC(=O)[C@H](CC(=O)O)NC(=O)[C@H](CO)NC(=O)[C@@H](NC(=O)[C@H](Cc1ccccc1)NC(=O)[C@@H](NC(=O)CNC(=O)[C@@H](N)CCC(=O)O)[C@@H](C)O)[C@@H](C)CC)[C@@H](C)CC)[C@@H](C)CC)C(=O)N[C@@H](CCC(N)=O)C(=O)N[C@@H](CCC(N)=O)C(=O)N[C@@H](CC(=O)O)C(=O)N[C@@H](Cc1ccccc1)C(=O)N[C@H](C(=O)N[C@@H](CC(N)=O)C(=O)N[C@@H](Cc1c[nH]c2ccccc12)C(=O)N[C@@H](CC(C)C)C(=O)N[C@@H](CC(C)C)C(=O)N[C@@H](C)C(=O)N[C@@H](CCC(N)=O)C(=O)N[C@@H](CCCCN)C(N)=O)C(C)C)C(=O)O [AT164, [hGIP(3-30)NH2[H18K]-C16/18+y-glutamic acid]] (H-EGTFISDYSIAMDKIK([γGlu-Palmitoyl])QQDFVNWLLAQK-NH2; N-terminus assumed) |  |  |  |  |  |  |  |  |  | 6.3 fold | ≥ 200 µM |  |  | 
3 | CCCCCCCCCCCCCCCC(=O)NCCCC[C@H](NC(=O)[C@@H](NC(=O)[C@H](CCCCN)NC(=O)[C@H](CC(=O)O)NC(=O)[C@H](CCSC)NC(=O)[C@H](C)NC(=O)[C@@H](NC(=O)[C@H](CO)NC(=O)[C@H](Cc1ccc(O)cc1)NC(=O)[C@H](CC(=O)O)NC(=O)[C@H](CO)NC(=O)[C@@H](NC(=O)[C@H](Cc1ccccc1)NC(=O)[C@@H](NC(=O)CNC(=O)[C@@H](N)CCC(=O)O)[C@@H](C)O)[C@@H](C)CC)[C@@H](C)CC)[C@@H](C)CC)C(=O)N[C@@H](CCC(N)=O)C(=O)N[C@@H](CCC(N)=O)C(=O)N[C@@H](CC(=O)O)C(=O)N[C@@H](Cc1ccccc1)C(=O)N[C@H](C(=O)N[C@@H](CC(N)=O)C(=O)N[C@@H](Cc1c[nH]c2ccccc12)C(=O)N[C@@H](CC(C)C)C(=O)N[C@@H](CC(C)C)C(=O)N[C@@H](C)C(=O)N[C@@H](CCC(N)=O)C(=O)N[C@@H](CCCCN)C(N)=O)C(C)C [AT117, [hGIP(3-30)NH2[H18K]-C16/18]] (H-EGTFISDYSIAMDKIK(Palmitoyl)QQDFVNWLLAQK-NH2; N-terminus assumed) | 8 h | 0% | 2.3 fold | 15 nM | 110 nM | 292 nM | 12 fold | 292 nM | 15.7 fold |  |  | 8 h | 1730 nM | IC50 ([4]; 2% HSA, Table 3b, read-out: Binding logIC50 2% HSA (converted)): 1730 nM
4 | CCCCCCCCCCCCCCCC(=O)NCCC(=O)NCCCC[C@H](NC(=O)[C@@H](NC(=O)[C@H](CCCCN)NC(=O)[C@H](CC(=O)O)NC(=O)[C@H](CCSC)NC(=O)[C@H](C)NC(=O)[C@@H](NC(=O)[C@H](CO)NC(=O)[C@H](Cc1ccc(O)cc1)NC(=O)[C@H](CC(=O)O)NC(=O)[C@H](CO)NC(=O)[C@@H](NC(=O)[C@H](Cc1ccccc1)NC(=O)[C@@H](NC(=O)CNC(=O)[C@@H](N)CCC(=O)O)[C@@H](C)O)[C@@H](C)CC)[C@@H](C)CC)[C@@H](C)CC)C(=O)N[C@@H](CCC(N)=O)C(=O)N[C@@H](CCC(N)=O)C(=O)N[C@@H](CC(=O)O)C(=O)N[C@@H](Cc1ccccc1)C(=O)N[C@H](C(=O)N[C@@H](CC(N)=O)C(=O)N[C@@H](Cc1c[nH]c2ccccc12)C(=O)N[C@@H](CC(C)C)C(=O)N[C@@H](CC(C)C)C(=O)N[C@@H](C)C(=O)N[C@@H](CCC(N)=O)C(=O)N[C@@H](CCCCN)C(N)=O)C(C)C [AT166, [hGIP(3-30)NH2[H18K]-C16/18+β-alanine]] (H-EGTFISDYSIAMDKIK([βAla-Palmitoyl])QQDFVNWLLAQK-NH2; N-terminus assumed) |  |  |  |  |  |  |  |  |  | 2.9 fold | ≤ 63.2 µM |  |  | 
5 | CC[C@H](C)[C@H](NC(=O)[C@H](CCCCN)NC(=O)[C@H](CC(=O)O)NC(=O)[C@H](CCSC)NC(=O)[C@H](CCCCNC(=O)CCCCCCCCCCCCCCC(=O)O)NC(=O)[C@@H](NC(=O)[C@H](CO)NC(=O)[C@H](Cc1ccc(O)cc1)NC(=O)[C@H](CC(=O)O)NC(=O)[C@H](CO)NC(=O)[C@@H](NC(=O)[C@H](Cc1ccccc1)NC(=O)[C@@H](N)[C@@H](C)O)[C@@H](C)CC)[C@@H](C)CC)C(=O)N[C@@H](Cc1c[nH]cn1)C(=O)N[C@@H](CCC(N)=O)C(=O)N[C@@H](CCC(N)=O)C(=O)N[C@@H](CC(=O)O)C(=O)N[C@@H](Cc1ccccc1)C(=O)N[C@H](C(=O)N[C@@H](CC(N)=O)C(=O)N[C@@H](Cc1c[nH]c2ccccc12)C(=O)N[C@@H](CC(C)C)C(=O)N[C@@H](CC(C)C)C(=O)N[C@@H](C)C(=O)N[C@@H](CCC(N)=O)C(=O)N[C@@H](CCCCN)C(N)=O)C(C)C [AT175, [hGIP(5-30)NH2[A13K]-C16diacid/13]] (H-TFISDYSIK(C16 diacid)MDKIHQQDFVNWLLAQK-NH2; N-terminus assumed) | 6 h | 0% |  |  |  |  |  |  | 7.8 fold |  |  | 6 h | 562 nM | Ability to antagonize the GIP-mediated cAMP response (in words) [3]: highest antagonistic potencies; Fold change of IC50 versus GIP(5-30)NH2 ([3]; fold change of IC50 from GIP(5-30)NH2): 0.5; Fold change HSA (2%)/Casein (0.1%) ([4]; IC50 (plus HSA)/IC50 (minus HSA)): 7.8; Ki ([4]; absence of HSA): 53 nM; IC50 ([4]; binding in 0.1% casein (absence of HSA), log value, read-out: logIC50 0.1% casein (converted)): 79.4 nM; Binding (+/−HSA) Fold ([4]; fold change +HSA/−HSA): 9.4
